Experimental data reported in article PMC5289647, “L-glutamine Induces Expression of Listeria monocytogenes Virulence Genes” (PLoS Pathogens, 2017).

How the values were obtained:
[1] = target: T1, SBP domain of LMRG_02270 (GlnPQ SBP; GlnP) (Listeria monocytogenes, UniProt A0A0H3GES4); assay: isothermal titration calorimetry; format: binding
T1 construct: SBP domain only (residues 29-254), signal peptide (first 28 residues) and transmembrane domain removed; N-terminal His-tag (pET-19b), codon-optimised synthetic gene; E. coli BL21-Gold (DE3); locus also printed as LMRG_02770 (apparent misprint)

GlnPQ = target: T2, GlnPQ (Listeria monocytogenes, UniProt A0A0H3GES4); assay: radiolabelled uptake by intact bacteria, rapid filtration; format: cell-based; details: PBS pH 7.4, 1.6 mM MgSO4, 1% glucose, 37 °C; labelled compound; mixed with unlabelled L-glutamine
T2 construct: gene LMRG_02270; native full-length ABC importer in L. monocytogenes cells; uptake compared with glnPQ deletion and complemented strains; glnP locus also printed as LMRG_02770 (apparent misprint)
T2 sequence (A0A0H3GES4 entry or part of it): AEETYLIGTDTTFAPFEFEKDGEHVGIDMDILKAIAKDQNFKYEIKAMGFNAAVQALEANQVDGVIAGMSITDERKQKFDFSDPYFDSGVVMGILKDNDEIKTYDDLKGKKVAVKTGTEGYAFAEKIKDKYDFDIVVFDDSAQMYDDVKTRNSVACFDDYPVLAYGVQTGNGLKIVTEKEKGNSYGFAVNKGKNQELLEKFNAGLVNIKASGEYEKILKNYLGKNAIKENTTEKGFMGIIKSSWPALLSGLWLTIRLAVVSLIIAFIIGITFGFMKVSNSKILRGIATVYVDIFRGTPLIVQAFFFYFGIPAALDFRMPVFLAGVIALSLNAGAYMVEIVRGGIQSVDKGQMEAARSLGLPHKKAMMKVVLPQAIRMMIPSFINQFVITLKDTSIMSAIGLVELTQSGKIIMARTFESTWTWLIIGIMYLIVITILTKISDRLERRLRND
T2 sequence (A0A0H3GF44 entry or part of it, further chain): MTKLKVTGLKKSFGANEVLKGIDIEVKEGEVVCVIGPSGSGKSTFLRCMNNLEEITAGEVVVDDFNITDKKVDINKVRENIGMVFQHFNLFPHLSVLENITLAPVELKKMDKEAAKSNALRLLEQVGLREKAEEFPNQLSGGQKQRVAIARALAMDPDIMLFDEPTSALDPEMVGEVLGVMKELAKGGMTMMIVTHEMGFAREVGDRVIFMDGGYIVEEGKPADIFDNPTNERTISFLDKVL

T1 sequence (A0A0H3GES4 entry or part of it): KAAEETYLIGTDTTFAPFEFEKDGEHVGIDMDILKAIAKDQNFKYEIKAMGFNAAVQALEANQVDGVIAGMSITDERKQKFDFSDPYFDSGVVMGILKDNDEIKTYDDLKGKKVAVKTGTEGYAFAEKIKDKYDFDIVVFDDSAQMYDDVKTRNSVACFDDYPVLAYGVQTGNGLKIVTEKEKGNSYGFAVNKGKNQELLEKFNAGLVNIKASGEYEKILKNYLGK

| SMILES | Kd [1] | L-glutamine uptake (GlnPQ) |
| --- | --- | --- |
| NC(=O)CC[C@H](N)C(=O)O [L-glutamine] | 4.7 µM |  |
| NC(=O)CC[C@H](N)C(=O)O [3H L-glutamine] |  | the rapid uptake of L-glutamine measured in the transport experiments is indeed mediated by an active |
